Measurements taken from US5189016A, “Nutrient compositions containing peptides and method for administering the same” (Clintec Nutrition Co., priority 1990, dated 1993).
Read-outs that look alike come from different tables or passages of the source. Peptide text beside a SMILES is read from it.

Tests used:
[1] = cited from earlier work
[2] = parameters: species or system piglets; settings: in vivo
Text: In this experiment slightly preterm, colostrum-deprived piglets were maintained on total parenteral nutrition from birth to day 7 of life. All piglets in this study have been enrolled and completed the study period in the University of Florida Piglet Neonatal Intensive Care Unit. Ten piglets in the control group received standard neonatal piglet total parenteral nutrition solution containing amino acids, glucose, lipid, vitamins and minerals. Eleven piglets in the experimental group received the same total […] nutrition formulation with the exception that 20% of the amino acids in the standard solution was replaced with glutamine. […] Nine piglets in each group completed the full 7 days of the study. One piglet in the control group and two piglets in the experimental group became septic. […] To date, the amino acid analyses have been completed on blood samples from six of the piglets in the experimental group and on blood samples from seven of the piglets in the control group.

In the case of `NC(=O)CC[C@H](N)C(=O)O` [Glutamine, glutamine], the Solubility in water ([1]; 30° C.) is given as 4.8 grams/100 mL.

For `NC(=O)C[C@H](N)C(=O)O` [asparagine], the Solubility in water ([1]; 28° C.) is given as 3.5 grams/100 mL.

With `NCC(=O)N[C@@H](CCC(N)=O)C(=O)O` [glycylglutamine dipeptide, glycyl-glutamine] (H-Gly-Gln-OH) the “Adverse effect in septic piglets” value [2] was “signs of severe convulsions”, the “Plasma glutamine concentration, mean” value [2] was 544 nmol/mL and the “Plasma glutamine concentrations compared to control group” value [2] was “increases the plasma glutamine concentrations”.

In the case of `N[C@@H](Cc1c[nH]c2ccccc12)C(=O)O` [tryptophan], the Solubility in water ([1]; 25° C.) is given as 11.4 grams/100 mL.
